The source of these data is patent US4837228A, “Antiinflammatory and antimicrobial compounds and compositions” (The University of Mississippi, priority 1982, dated 1989).

What all share (format): cell-based
One assay relates to Saccharomyces cerevisiae. The assay can be described thus: MIC, two-fold (broth) serial dilution, S. cerevisiae. Summed up: (§1)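 Qualitative: agar well diffusion. Quantitative: two-fold (broth) serial dilution → MIC. Inoculum = 1 loop-full, 1:10 dilution of 24-h broth culture in sterile water; fungi/M. smegmatis 48–72 h incubation. Controls: streptomycin sulfate (antibacterial), amphotericin B (antifungal).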

In assay [1] the test system is Trichophyton mentagrophytes. The assay can be described thus: MIC, two-fold (broth) serial dilution, T. mentagrophytes. Summed up:
as §1

A further assay relates to Staphylococcus aureus. The assay can be described thus: agar well diffusion assay, S. aureus. The settings on record: from edge of agar well. The procedure: (§2) Both qualitative and quantitative screens were performed. Qualitative screening was accomplished using the agar well diffusion assay technque while quantitative screening was accomplished by the two-fold (broth) serial dilution method to determine the minimum inhibitory concentration (MIC). Innoculation was accomplished with one loop-full of a 1:10 dilution of the 24-hour-old broth culture, (fungal cultures and M.smegmatis more often required 48 to 72 hours of incubation) of the test organisms in sterile water. Streptomycin sulfate was used as a positive control for antibacterial activity while amphitericin B was used as an antifungal positive control. Organisms utilized in the screens included gram-positive, gram-negative, and acid-fast bacteria as well as different types of fungi. […] An intermediate type activity is seen where R is hydrogen. However, where R is lengthened up to C15 a decrease in activity was noted. Total saturation of the two double bonds in the compounds having a methyl side chain lead, in most cases, to an increase in both antifungal and antibacterial activity.
A general note: In agar diffusion tests the substance spreads into inoculated agar from a disc or well.

In another assay the test system is Bacillus subtilis. As to the kind of experiment: agar well diffusion assay, B. subtilis. The settings on record: from edge of agar well. As for the experimental part: as §2
In another assay the test system is Mycobacterium smegmatis. As to the kind of experiment: MIC, two-fold (broth) serial dilution, M. smegmatis. The settings on record: Mycolicibacterium smegmatis, read-out: MIC. Summed up: as §1

Structures are written as SMILES. Converted amounts (≈) assume the structure as drawn. Read-outs that look alike come from different tables or passages of the source.

Turning to `CCCCCc1cc(O)c2c(c1)OC(C)(CCC=C(C)C)C=C2` (centres unmarked) [CBC (I), 2-methyl-2(4'methyl-pent-3'-enyl)-5-hydroxy-7-pentyl chromene], the MIC (commonly the lowest concentration that inhibits growth of the organism) came out at 25.0 µg/mL (≈ 79.5 µM) against Saccharomyces cerevisiae (48 hr); 50.0 µg/mL (≈ 159 µM) against Saccharomyces cerevisiae (72 hr); 25 µg/mL (≈ 79.5 µM) in the assay with Saccharomyces cerevisiae (Saccharomyces cerevisiae, 48 h, read-out: MIC); 50 µg/mL (≈ 159 µM) in the assay on Saccharomyces cerevisiae (Saccharomyces cerevisiae, 72 h, read-out: MIC); 25.0 µg/mL (≈ 79.5 µM) in assay [1] (48 hr); 50.0 µg/mL (≈ 159 µM) in assay [1] (72 hr). For the same compound, the MIC in assay [1] (Trichophyton mentagrophytes, 48 h, read-out: MIC) turned out to be 25 µg/mL (≈ 79.5 µM); in assay [1] (Trichophyton mentagrophytes, 72 h, read-out: MIC), 50 µg/mL (≈ 159 µM); in the assay with Mycobacterium smegmatis (24 h), 12.5 µg/mL (≈ 39.7 µM); in the assay on Mycobacterium smegmatis (48 h), 25 µg/mL (≈ 79.5 µM). In addition, the “width of inhibition zone” value with Staphylococcus aureus (24 hr) was 10. mm; with Staphylococcus aureus (48 hr), 10. mm; with Bacillus subtilis (24 hr), 8.0 mm; with Bacillus subtilis (48 hr) it was 5.0 mm.
